Assay [1] has as its system T-cell lines of 7 donors with different MHC class II alleles. The assay can be described thus: Epitope mapping of Crf1 peptides with IFN-γ ELISPOT. It counts as cell-based, human. The note with it: 7 donors tested, peptide-pulsed autologous DC. The text has this: (§1) As the identification of potential protective fungal antigens is rather intricate due to the extensiveness of fungal genomes, we analyzed 6 different A. fumigatus recombinant proteins based on their previously reported immunogeneic reactivity in mice and humans^7,10. […] By contrast, GPI-anchored extracellular cell wall glucanase Crf1 and secreted protein peptidase induced high IFN-γ in 6 of 7 and 5 of 10 tested donors, respectively. The response was mediated by CD4^+ TH1 cells, as MHC class II blocking antibody nearly abrogated IFN-γ release (data not shown). Due to the broad response and the sequence similarity to the C. albicans orthologue Crh1, we focused in subsequent experiments on the protein Crf1. By epitope mapping of 7 healthy individuals with different MHC class II alleles, we identified 10 potential candidate epitopes (Table 1). Based on the results obtained by epitope mapping, the probability of antigen presentation by certain MHC class II alleles assessed by epitope prediction^11, previously reported immunogeneic reactivity^12 and sequence similarity to the C. albicans homologue Crh1, we then generated CD4^+ TH1 T-cell clones specific for the peptides p1, p22, p27, p41, p48, p59, p69 and p84 (FIG. 1a and Table 1).
A peptide library covering the complete Crf1 sequence consisting of 94 15-mer peptides overlapping by […] (aa) was divided into sub-pools of 10 peptides and 94 single peptides (p1-p94) (PANATecs). 3 11-mer peptides of p40/41 overlapping by 2aa ([…], […], HTYTIDWTKDA) were obtained from JPT Peptide Technologies.
(§2) For analysis of recombinant proteins and epitope mapping, T-cell lines were generated by incubation of 1×10^7 PBMC per well in 6-well cell culture plates with 5 μg/ml protein or peptide for 7d in the presence of 5 U/ml IL-2 (Proleukin, Chiron). Antigen specificity was analyzed by IFN-γ ELISA^42 after restimulation with autologous monocytes incubated overnight with 5 μg/ml protein in a responder to stimulator (R:S) ratio of 5:1. Epitope mapping was performed by IFN-γ ELISPOT^39 after stimulation with peptide-pulsed autologous DC at a R:S ratio of 10:1.

For assay [2], the system named is DC transfected with Crf1 mRNA. The assay can be described thus: Peptide-specific T-cell clones stimulated with Crf1 mRNA-transfected DC (IFN-γ). It counts as cell-based, human. The note with it: for Response of peptide-specific CD4+ T-cell clones to endogenously processed antigen: all donors. The protocol:
(§3) T-cell cloning was performed as described in below. T-cell clones were stimulated either with mature peptide-pulsed (2.5 μg/ml) or Crf1 mRNA-transfected DC, immature DC incubated for 24 h with A. fumigatus cell extract (20 μg/ml) in the presence of cytokine maturation cocktail or immature DC incubated for 24 h with inactivated A. fumigatus or C. albicans fungus (multiplicity of infection 3) in a R:S ratio of 5:1.
For T-cell cloning 6×10^7 PBMC were stimulated overnight with 5 μg/ml peptide and 1 μg/ml CD40 antibody (HB14, Miltenyi Biotec). Cells were labelled with anti-CD154^+ microbeads and isolated by magnetic cell separation according to the manufacturers' instructions (Miltenyi Biotec). Selected cells were cultured with γ-irradiated autologous PBMC (ratio 1:50) and cytokines were supplemented as described above. On d14, T-cell clones were generated by limiting dilution in 96-well plates and expanded using the rapid expansion protocol previously described^50.
A. fumigatus Crf1 cDNA was cloned into the pGEM4Z vector (provided by Kris Thielemans) and in vitro transcribed using mMESSAGE mMACHINE T Ultra Kit (Ambion) according to the manufacturers' instructions. Crf1 was fused to the N-terminal domain of the invariant chain to enhance antigen presentation by MHC class II^51,52. Maturated DC were electroporated with 15 μg mRNA at 300V and 150 μF using the EQUIBIO EasyjecT Plus® apparatus (EQUIBIO) in serum-free medium (OptiMEM, Gibco)^41.

Assay [3] relates to A. fumigatus cell extract. The assay can be described thus: Peptide-specific T-cell clones stimulated with DC incubated with A. fumigatus cell extract (IFN-γ). It counts as cell-based, Aspergillus fumigatus. To be noted: extract 20 μg/ml, DC incubated 24 h. The protocol:
as §3
(§4) Fungal extracts were generated as described^48 and protein content was measured by Bradford protein assay (Perbio Science) according to the manufacturers' instructions. For inactivated fungus Aspergillus conidia were inoculated in growth medium^49 and cultured for 0, 4, 8 or 12 h. Candida species were cultured for 24 h. Fungi were inactivated with 70% ethanol. Ethanol-inactivated fungi and extracts were validated for sterility by subculturing on Sabouraud dextrose agar.

Assay [4] has as its system C. albicans. The assay can be described thus: Peptide-specific T-cell clones stimulated with inactivated C. albicans yeast. It counts as cell-based, Candida albicans. The note with it: inactivated C. albicans yeast, established strain.
Text: A. fumigatus Crf1 p41-specific T-cell clones are cross-reactive to C. albicans and can be activated by different clinical isolates of both fungi. (a) All A. fumigatus Crf1 p41-specific T-cell clones from different donors respond to stimulation with inactivated C. albicans yeast. IFN-γ values are given after subtraction of the negative control. Shown is 1 clone per antigen and donor (representative experiments, n≧3). (b) A. fumigatus Crf1 p41-specific T-cell clones respond to different inactivated clinical isolates of germinating A. fumigatus conidia and C. albicans yeast.
as §3, §4

The subject of assay [5] is A. flavus, A. nidulans, A. niger, A. terreus, C. glabrata and C. krusei. The assay can be described thus: Cross-reactivity of T-cell clones to other Aspergillus and Candida species. It counts as cell-based. The note with it: data not shown. An excerpt: We then analyzed if our T-cell clones might cross-react to other clinically relevant Aspergillus and Candida species such as A. flavus, A. nidulans, A. niger, A. terreus, C. glabrata and C. krusei because they also express proteins with some sequence similarity to A. fumigatus Crf1. […] Thus, p41-specific TH1 cells represent a core repertoire in antifungal immune responses being reactive to A. fumigatus but also to C. albicans, the second most important pathogenic fungus in HSCT patients.
Fungal strains A. fumigatus D141, A. nidulans FGSCA4, C. albicans SC5314 and clinical isolates A. fumigatus, A. terreus, A. flavus, A. niger, C. albicans, C. glabrata and C. krusei were provided by Sven Krappmann, Joachim Morschhäuser and Reno Frei.

The test system of assay [6] is T-cell lines from PBMC of healthy donors. The assay can be described thus: IFN-γ ELISA of T-cell lines stimulated with recombinant A. fumigatus proteins. Type of assay: cell-based, human. To be noted: 5 μg/ml protein.
Text: as §1
A. fumigatus superoxide dismutase^34, catalase^35, peptidase^36 and 1,3-beta-glucanosyl-transferase Gel1^30 were produced in the yeast Pichia pastoris as described^37. Extracellular cell wall glucanase Crf1^37 (cDNA provided by Utz Reichard) and the major allergen and cytotoxin AspF1^10 were expressed with FLAG-Tags in the human cell line phoenix GALV^38.
as §2

In assay [1], “AKGGTRFPQTPMRLR (peptide epitope of A. fumigatus Crf1) [p48, Crf1 aa 189-203]” showed a No. of responders of 3. For the same molecule, the “Response of peptide-specific CD4+ T-cell clones to endogenously processed antigen” value (“Response … to endogenously processed antigen” below) in assay [2] was “None of the CD4^+ T-cell clones specific for the peptides p48, p69 and p84 responded to Crf1 mRNA-transfected DC”. In addition, the “Number of T-cell clones reacting to Crf1 mRNA-transfected DC/number of peptide-specific T-cell clones” value (from here on “Number of T-cell clones reacting”) in assay [2] (donor 3) was 0/7; in assay [2] (donor 4), 0/4; in assay [2] (donor 11), 0/5.

For “GSSNTGSGSGSGSGS (peptide epitope of A. fumigatus Crf1) [p84, Crf1 aa 333-347]”, the No. of responders in assay [1] came to 5. Besides, the “Response … to endogenously processed antigen” value in assay [2] was “None of the CD4^+ T-cell clones specific for the peptides p48, p69 and p84 responded to Crf1 mRNA-transfected DC”. The “Number of T-cell clones reacting” value is 0/4 in assay [2] (donor 4) and 0/5 in assay [2] (donor 11).

In assay [1], “MYFKYTAAALAAVLP (peptide epitope of A. fumigatus Crf1) [p1, Crf1 aa 1-15]” showed a No. of responders of 4. Further, the “Response … to endogenously processed antigen” value in assay [2] is “only some of the p1-, p22-, p27- and p59-specific CD4^+ T-cells clones responded to endogenously processed antigen”. Further, the “Number of T-cell clones reacting” value is 3/3 in assay [2] (donor 5), 1/5 in assay [2] (donor 6), 0/6 in assay [2] (donor 7) and 10/10 in assay [2] (donor 12). Further, in assay [3], the “Response of peptide-specific T-cell clones to A. fumigatus extract” value is reported as “most Crf1 p1-specific T-cell clones of 2 of 4 donors responded to A. fumigatus extract”. For the same molecule, in assay [4], the “Cross-reactivity of peptide-specific T-cell clones to C. albicans” value is “none of the Crf1 p1-, Cal p27- and Cal p59-specific T-cell clones could be activated”. Also, the “Cross-reactivity to other Aspergillus and Candida species” value in assay [5] was “weak cross-reactivity to A. flavus, A. nidulans and A. terreus”.

In assay [1], “PPNKGLAASTYTADF (peptide epitope of A. fumigatus Crf1) [p9, Crf1 aa 33-47]” gave a No. of responders of 3.

Regarding “SAGPYTMYVKSVRIE (peptide epitope of A. fumigatus Crf1) [p58, Crf1 aa 229-243]”, the No. of responders in assay [1] is 3.

As to “SSSSVTSSTTSTASS (peptide epitope of A. fumigatus Crf1) [p69, Crf1 aa 273-287]”, in assay [1], the No. of responders turned out to be 3. In addition, the “Response … to endogenously processed antigen” value in assay [2] was “None of the CD4^+ T-cell clones specific for the peptides p48, p69 and p84 responded to Crf1 mRNA-transfected DC”. Also, the “Number of T-cell clones reacting” value is on record as 0/3 in assay [2] (donor 1) and 0/2 in assay [2] (donor 4).

“TGSSTSAGASATPEL (peptide epitope of A. fumigatus Crf1) [p89, Crf1 aa 353-367]”: the No. of responders in assay [1] turned out to be 4.

In turn, “TRFPQTPMRLRLGSW (peptide epitope of A. fumigatus Crf1) [p49, Crf1 aa 193-207]” gave a No. of responders in assay [1] of 4.

Turning to “YTMYVKSVRIENANP (11-mer peptide of p40/41) [p59, Crf1 aa 233-247]”, the No. of responders in assay [1] was 5. Also, the “Response … to endogenously processed antigen” value in assay [2] was “only some of the p1-, p22-, p27- and p59-specific CD4^+ T-cells clones responded to endogenously processed antigen”. Besides, the figures for the “Number of T-cell clones reacting” value in assay [2] (donor 5), in assay [2] (donor 6) and in assay [2] (donor 12) were 1/3, 2/2 and 1/7, respectively. In assay [3], the “Response of peptide-specific T-cell clones to A. fumigatus extract” value was “only very few T-cell clones specific for Cal p27 and Crf1 p59”. In addition, in assay [4], the “Cross-reactivity of peptide-specific T-cell clones to C. albicans” value is “none of the Crf1 p1-, Cal p27- and Cal p59-specific T-cell clones could be activated”. Further, in assay [5], the “Cross-reactivity to other Aspergillus and Candida species” value is “none of the Crf1 p27-, p41- and p59-specific T-cell clones showed any cross-reactivity to these fungi”.

With catalase, the “IFN-γ response” value in assay [6] is given as “only weak interferon-γ (IFN-γ) responses in some donors”.

In the case of superoxide dismutase, in assay [6], the “IFN-γ response” value was “only weak interferon-γ (IFN-γ) responses in some donors”.

B1: AspF1: recombinant A. fumigatus major allergen and cytotoxin AspF1 (His136Leu) (protein)
chain: ATWTCINQQLNPKTNKWEDKRLLYSQAKAESNSHHAPLSDGKTGSSYPHWFTNGYDGNGKLIKGRTPIKFGKADCDRPPKHSQNGMGKDDHYLLEFPTFPDGHDYKFDSKKPKEDPGPARVIYTYPNKVFCGIVALQRGNQGDLRLCSH
Take B1: the “IFN-γ response” value in assay [6] is given as “only weak interferon-γ (IFN-γ) responses in some donors”.

The values are drawn from patent publication US20130315920A1, “Cross Protective Epitopes of Aspergillus Fumigatus and Candida Albicans” (Cell Medica Limited, priority 2010, published 2013).
